What is called IC50 is the concentration at which inhibition is half-maximal. What is called melting point is the temperature, or range, at which the solid turns liquid.

Some results are limits rather than exact numbers.

Our source for the IC50 and melting point values is patent US6608071B2, “Isoquinoline derivatives with angiogenesis inhibiting activity” (Novartis AG, priority 1998, dated 2003).

The target of data set [1] is T1, Flt-1 VEGF receptor tyrosine kinase (Homo sapiens, UniProt P17948).
T1 construct: 10 ng of the kinase domain of Flt-1
T1 sequence (P17948 827-1158 limits assumed): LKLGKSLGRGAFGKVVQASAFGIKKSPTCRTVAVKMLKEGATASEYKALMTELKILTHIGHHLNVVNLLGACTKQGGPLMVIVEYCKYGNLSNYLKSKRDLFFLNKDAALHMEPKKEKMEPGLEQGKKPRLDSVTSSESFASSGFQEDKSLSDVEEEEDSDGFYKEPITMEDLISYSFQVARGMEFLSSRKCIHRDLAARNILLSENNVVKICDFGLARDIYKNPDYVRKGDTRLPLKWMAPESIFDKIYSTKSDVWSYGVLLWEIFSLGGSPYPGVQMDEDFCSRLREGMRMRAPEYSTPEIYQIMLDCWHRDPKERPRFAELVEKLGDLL
The experiment in a line: Test for activity against Flt-1 VEGF receptor tyrosine kinase activity. The class given is biochemical. The note with it: kinase domain of Flt-1, poly(Glu,Tyr) 4:1, 8 μM [33P]-ATP, 15 minutes at room temperature. The procedure:
Test for activity against VEGF receptor tyrosine kinase activity: The test is carried out using Flt-1 VEGF receptor tyrosine kinase. In detail, the procedure is as follows: 30 μl of kinase solution (10 ng of the kinase domain of Flt-1, Shibuya et al., Oncogene 5, 519-524 (1990)) in 20 mM Tris-HCl pH 7.6, 3 mM manganese dichloride (MnCl2), 3 mM magnesium chloride (MgCl2) and 3 μg/ml of poly(Glu,Tyr) 4:1 (Sigma, Buchs, Switzerland), 8 μM [^33P]-ATP (0.2 μCi/batch), 1% dimethyl sulfoxide and from 0 to 50 μM of the test compound are incubated together for 15 minutes at room temperature. The reaction is then terminated by addition of 10 μl of 0.25M ethylenediamine tetraacetate (EDTA) pH 7. An aliquot of 20 μl is connected to a vacuum using a multichannel dispenser (LAB SYSTEMS, USA) on a PVDF (=polyvinyl difluoride) Immobilon P membrane (Millipore, USA), which is incorporated in a Millipore Microtiter filter manifold. When the liquid has been removed completely, the membrane is incubated 4 times in succession, in each case for 10 minutes, with shaking, in a washing bath containing 0.5% phosphoric acid (H3PO4), and is then mounted in a Hewlett Packard TopCount Manifold and, after addition of 10 μl of Microscint® (β-scintillation counter fluid; Packard, USA), the radioactivity is, measured. IC50 values are determined by linear regression analysis of the percentage values for the inhibition of each compound at three concentrations (generally 0.01, 0.1 and 1 μM). The inhibition values (IC50 with half-maximum inhibition as compared with a control without inhibitor of formula I) found are especially in the range of from 10 nmol/liter to 100 μmol/liter, more especially from 20 to 2000 nmol/liter.
The test is carried out using Fit-1 VEGF receptor tyrosine kinase, as described above. The IC50 values obtained are shown below, insofar as they were calculated accurately: […]

`Cc1cc(C)cc(Nc2ncc(Cc3ccncc3)c3ccccc23)c1` [Example 1, 1-(3,5-Dimethylanilino)-4-[(pyridin-4-yl)-methyl]-isoquinoline] displayed a melting point of 156 to 158 °C. In data set [1], the IC50 amounted to 802 nM. In data set [1], `Clc1ccc(Nc2ncc(Cc3ccncc3)c3ccccc23)cc1` [Example 2] yielded a half-inhibitory concentration (IC50) of 346 nM.

Regarding `FC(F)(F)c1cc(Br)cc(Nc2ncc(Cc3ccncc3)c3ccccc23)c1` [Example 3], in data set [1], the IC50 was > 1000 nM. On the same count and under the same terms, next, `FC(F)(F)c1cc(Nc2ncc(Cc3ccncc3)c3ccccc23)ccc1Cl` [Example 4]: > 1000 nM. Still for that read-out and setting: in the case of `Cc1cccc(Nc2ncc(Cc3ccncc3)c3ccccc23)c1` [Example 5] it was 344 nM.

Turning to `Clc1cccc(CNc2ncc(Cc3ccncc3)c3ccccc23)c1` [Example 132, 1-(3-Chlorobenzylamino)-4-[(pyridin-4-yl)-methyl]-isoquinoline], the melting point is 141 to 142 °C.
